Results reported in the supplement of paper PMC12463676, “Small-molecule dissolution of stress granules by redox modulation benefits ALS models” (Nature Chemical Biology, 2025).

Columns and labels:
potassium arsenate = compound: O=[As]([O-])(O)O.[K+] [potassium arsenate]; assay: thermal stability z-score vs DMSO; higher = more thermally stabilized by treatment; conditions: HeLa; arsenate concentration 1 mM
Description: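 Cellular thermal proteome profiling in HeLa cells treated with 1 mM arsenate for 1 h (DMSO pretreatment), heated to ten temperatures (37-66.3 °C). Soluble protein was quantified by TMT mass spectrometry relative to DMSO controls; the thermal stability score was transformed to a z-score; mean of n = 3 experiments.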

lipoamide = compound: NC(=O)CCCCC1CCSS1 [lipoamide]; assay: as above; conditions: HeLa, lipoamide concentration 100 µM
Description: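 Cellular thermal proteome profiling in HeLa cells. Cells were treated with 100 µM lipoamide for 1 h, with or without 1 mM arsenate for a further 1 h, then heated to ten temperatures (37-66.3 °C), and soluble protein was quantified by TMT mass spectrometry relative to 0.1% DMSO controls. The thermal stability score (sum of log2 fold changes minus the abundance score) was transformed to a z-score; mean of n = 3 experiments.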

[1] = arsenate co-treatment: 1 mM arsenate 1 h
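Also: each temperature applied for 3 min, abundance score taken as mean log2 fold change at the two lowest temperatures, z-score obtained by mean subtraction and division by SD.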

Sequence of UniProt Q9BYN0 (Q9BYN0 whole entry): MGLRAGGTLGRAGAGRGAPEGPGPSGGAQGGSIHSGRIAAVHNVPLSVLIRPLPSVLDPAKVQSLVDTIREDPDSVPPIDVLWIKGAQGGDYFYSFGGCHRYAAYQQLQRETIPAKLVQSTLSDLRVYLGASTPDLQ
Sequence of UniProt Q9UQ35 (Q9UQ35 whole entry): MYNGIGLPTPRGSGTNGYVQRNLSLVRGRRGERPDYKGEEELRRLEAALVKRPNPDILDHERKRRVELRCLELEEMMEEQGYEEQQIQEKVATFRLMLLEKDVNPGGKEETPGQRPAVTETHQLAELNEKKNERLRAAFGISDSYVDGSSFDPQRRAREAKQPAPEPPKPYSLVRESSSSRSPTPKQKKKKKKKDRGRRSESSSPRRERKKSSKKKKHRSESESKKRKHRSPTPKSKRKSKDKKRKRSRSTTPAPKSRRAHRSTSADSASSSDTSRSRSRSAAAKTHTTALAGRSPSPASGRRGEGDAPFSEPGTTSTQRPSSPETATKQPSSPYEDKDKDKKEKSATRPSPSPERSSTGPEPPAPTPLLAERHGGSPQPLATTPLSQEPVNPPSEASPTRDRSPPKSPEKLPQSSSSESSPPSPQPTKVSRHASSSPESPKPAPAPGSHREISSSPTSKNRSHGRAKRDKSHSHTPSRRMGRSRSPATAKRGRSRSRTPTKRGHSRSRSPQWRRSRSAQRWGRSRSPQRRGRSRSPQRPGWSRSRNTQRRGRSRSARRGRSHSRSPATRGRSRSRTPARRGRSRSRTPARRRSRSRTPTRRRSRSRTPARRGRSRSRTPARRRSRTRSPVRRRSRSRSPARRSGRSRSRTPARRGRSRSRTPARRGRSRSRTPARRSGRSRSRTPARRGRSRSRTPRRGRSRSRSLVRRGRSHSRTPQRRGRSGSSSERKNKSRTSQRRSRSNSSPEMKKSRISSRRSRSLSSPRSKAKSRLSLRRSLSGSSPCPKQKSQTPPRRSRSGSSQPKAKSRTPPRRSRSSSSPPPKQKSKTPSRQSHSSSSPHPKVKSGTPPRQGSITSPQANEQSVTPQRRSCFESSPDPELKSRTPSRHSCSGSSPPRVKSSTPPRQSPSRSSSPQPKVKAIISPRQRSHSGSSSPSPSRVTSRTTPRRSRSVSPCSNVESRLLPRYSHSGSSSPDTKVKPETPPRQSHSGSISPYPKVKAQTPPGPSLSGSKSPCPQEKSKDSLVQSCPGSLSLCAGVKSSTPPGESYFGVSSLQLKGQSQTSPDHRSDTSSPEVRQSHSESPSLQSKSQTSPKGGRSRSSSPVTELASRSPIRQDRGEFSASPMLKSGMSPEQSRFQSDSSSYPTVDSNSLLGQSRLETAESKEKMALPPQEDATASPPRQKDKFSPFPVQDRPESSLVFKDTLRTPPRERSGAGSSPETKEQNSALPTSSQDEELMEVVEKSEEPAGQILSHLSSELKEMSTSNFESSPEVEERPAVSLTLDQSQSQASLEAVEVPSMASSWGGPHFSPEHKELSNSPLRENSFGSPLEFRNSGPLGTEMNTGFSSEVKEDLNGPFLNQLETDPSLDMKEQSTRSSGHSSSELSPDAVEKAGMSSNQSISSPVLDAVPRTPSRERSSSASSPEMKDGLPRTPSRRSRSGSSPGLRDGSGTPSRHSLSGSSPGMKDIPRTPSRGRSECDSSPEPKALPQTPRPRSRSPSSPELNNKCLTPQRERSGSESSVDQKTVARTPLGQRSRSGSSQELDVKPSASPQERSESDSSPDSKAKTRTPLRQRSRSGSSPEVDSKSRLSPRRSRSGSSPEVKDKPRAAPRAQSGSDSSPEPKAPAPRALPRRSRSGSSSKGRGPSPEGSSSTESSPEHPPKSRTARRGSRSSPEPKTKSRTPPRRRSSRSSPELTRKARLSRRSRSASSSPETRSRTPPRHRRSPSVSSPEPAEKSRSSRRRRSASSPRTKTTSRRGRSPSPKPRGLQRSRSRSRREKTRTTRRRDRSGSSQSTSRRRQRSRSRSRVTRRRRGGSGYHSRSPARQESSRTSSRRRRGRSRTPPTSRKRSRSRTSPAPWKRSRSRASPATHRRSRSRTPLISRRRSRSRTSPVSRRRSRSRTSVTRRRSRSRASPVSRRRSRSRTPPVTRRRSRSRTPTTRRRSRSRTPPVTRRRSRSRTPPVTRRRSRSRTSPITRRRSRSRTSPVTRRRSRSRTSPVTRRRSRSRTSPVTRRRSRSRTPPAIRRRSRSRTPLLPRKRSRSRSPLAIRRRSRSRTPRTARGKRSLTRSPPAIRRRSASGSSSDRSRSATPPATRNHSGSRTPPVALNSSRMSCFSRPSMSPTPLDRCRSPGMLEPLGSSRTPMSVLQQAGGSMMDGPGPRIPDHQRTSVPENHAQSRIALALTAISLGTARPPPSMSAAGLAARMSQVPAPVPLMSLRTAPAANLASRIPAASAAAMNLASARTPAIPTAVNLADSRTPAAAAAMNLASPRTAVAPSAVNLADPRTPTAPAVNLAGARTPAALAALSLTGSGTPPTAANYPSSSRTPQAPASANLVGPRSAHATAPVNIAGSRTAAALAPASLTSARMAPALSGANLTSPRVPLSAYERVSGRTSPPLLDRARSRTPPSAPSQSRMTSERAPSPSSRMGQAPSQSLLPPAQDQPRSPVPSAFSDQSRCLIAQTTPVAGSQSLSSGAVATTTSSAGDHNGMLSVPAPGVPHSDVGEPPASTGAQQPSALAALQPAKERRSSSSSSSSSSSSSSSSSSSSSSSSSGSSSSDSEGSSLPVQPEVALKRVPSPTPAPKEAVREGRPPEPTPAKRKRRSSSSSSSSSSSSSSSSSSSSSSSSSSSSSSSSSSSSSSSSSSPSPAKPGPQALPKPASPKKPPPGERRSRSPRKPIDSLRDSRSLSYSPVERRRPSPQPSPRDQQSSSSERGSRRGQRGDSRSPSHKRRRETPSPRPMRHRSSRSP
Sequence of UniProt Q04837 (Q04837 whole entry): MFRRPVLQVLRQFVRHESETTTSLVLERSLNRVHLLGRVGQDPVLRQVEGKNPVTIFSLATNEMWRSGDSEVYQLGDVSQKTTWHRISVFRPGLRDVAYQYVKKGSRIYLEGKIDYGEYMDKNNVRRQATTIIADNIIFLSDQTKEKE
Sequence of UniProt Q07955 (Q07955 whole entry): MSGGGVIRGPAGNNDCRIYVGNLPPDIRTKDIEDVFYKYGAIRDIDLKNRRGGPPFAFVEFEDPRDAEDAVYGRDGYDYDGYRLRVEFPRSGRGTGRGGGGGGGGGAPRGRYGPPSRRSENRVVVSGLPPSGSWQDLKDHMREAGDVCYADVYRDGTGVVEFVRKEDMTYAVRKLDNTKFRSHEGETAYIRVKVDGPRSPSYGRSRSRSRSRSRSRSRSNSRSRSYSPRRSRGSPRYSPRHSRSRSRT
Sequence of UniProt Q8TE77 (Q8TE77 whole entry): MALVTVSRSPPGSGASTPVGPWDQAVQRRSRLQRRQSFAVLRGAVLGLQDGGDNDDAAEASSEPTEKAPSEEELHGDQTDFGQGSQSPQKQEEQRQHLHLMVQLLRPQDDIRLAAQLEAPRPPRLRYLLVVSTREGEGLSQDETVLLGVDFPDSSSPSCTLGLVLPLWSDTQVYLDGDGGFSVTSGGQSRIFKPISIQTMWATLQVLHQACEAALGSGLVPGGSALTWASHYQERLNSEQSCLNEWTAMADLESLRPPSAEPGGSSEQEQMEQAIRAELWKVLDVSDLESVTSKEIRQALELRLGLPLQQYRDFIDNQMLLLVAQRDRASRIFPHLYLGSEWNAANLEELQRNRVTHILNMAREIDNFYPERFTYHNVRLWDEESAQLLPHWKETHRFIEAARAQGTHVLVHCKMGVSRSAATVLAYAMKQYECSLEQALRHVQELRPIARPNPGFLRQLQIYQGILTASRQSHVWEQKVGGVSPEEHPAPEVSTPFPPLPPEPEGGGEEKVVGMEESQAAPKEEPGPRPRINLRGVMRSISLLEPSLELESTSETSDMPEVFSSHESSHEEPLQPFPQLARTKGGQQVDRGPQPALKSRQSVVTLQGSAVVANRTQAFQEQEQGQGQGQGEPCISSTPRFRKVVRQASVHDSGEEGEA
Sequence of UniProt P05455 (P05455 whole entry): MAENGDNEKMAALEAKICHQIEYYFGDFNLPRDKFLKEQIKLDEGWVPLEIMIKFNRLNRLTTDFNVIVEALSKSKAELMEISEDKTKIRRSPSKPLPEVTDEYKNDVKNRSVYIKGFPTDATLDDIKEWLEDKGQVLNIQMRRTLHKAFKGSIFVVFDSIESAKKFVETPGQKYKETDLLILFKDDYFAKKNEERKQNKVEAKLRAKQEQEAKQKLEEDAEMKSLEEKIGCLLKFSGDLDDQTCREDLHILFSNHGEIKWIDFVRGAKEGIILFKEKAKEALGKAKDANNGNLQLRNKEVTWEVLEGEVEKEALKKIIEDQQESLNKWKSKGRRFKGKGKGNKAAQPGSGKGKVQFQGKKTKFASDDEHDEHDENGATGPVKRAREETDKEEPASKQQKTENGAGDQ
Sequence of UniProt Q96FJ0 (Q96FJ0 whole entry): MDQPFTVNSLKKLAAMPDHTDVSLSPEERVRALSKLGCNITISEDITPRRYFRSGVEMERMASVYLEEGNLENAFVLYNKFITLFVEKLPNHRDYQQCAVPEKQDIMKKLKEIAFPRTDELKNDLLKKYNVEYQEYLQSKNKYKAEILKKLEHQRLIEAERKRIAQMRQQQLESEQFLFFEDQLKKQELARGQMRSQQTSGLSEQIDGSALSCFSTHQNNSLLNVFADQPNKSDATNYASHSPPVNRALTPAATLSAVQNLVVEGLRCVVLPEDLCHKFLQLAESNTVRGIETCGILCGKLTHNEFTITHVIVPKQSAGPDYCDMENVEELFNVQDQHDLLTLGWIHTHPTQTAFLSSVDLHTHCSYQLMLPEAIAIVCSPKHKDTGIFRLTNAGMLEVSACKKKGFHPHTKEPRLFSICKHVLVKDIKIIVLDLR
Sequence of UniProt P43308 (P43308 whole entry): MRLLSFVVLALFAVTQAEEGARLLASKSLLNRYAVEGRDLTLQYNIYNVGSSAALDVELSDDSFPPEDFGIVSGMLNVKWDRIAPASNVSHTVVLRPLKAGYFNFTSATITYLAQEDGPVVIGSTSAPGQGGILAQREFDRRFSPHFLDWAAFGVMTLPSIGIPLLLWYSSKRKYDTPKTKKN

Target | thermal stability z-score (potassium arsenate) | thermal stability z-score (lipoamide; [1]) | thermal stability z-score (lipoamide; arsenate co-treatment: none)
SRP14 (UniProt P37108) | -0.436 | -0.152 | -0.0661
SRP19 (UniProt P09132) | 0.033 | -0.296 | -0.485
SRP54 (UniProt P61011) | 0.715 | -0.193 | 0.172
SRP68 (UniProt Q9UHB9) | 0.344 | -0.606 | -0.27
SRP72 (UniProt O76094) | 0.424 | -0.316 | -0.00987
SRPK1 (UniProt Q96SB4) | 0.291 | 0.669 | -0.433
SRPK2 (UniProt P78362) | 0.168 | 0.467 | -0.365
SRPRA (UniProt P08240) | 0.545 | -0.176 | -0.208
SRPRB (UniProt Q9Y5M8) | 1.49 | -0.411 | 0.511
SRR (UniProt Q9GZT4) | -0.393 | -0.139 | -0.118
SRRM1 (UniProt Q8IYB3) | -2.14 | 0.79 | 0.714
SRRM2 (UniProt Q9UQ35) | -0.494 | 2.25 | 1.42
SRRT (UniProt Q9BXP5) | -0.751 | 0.06 | 0.206
SRSF1 (UniProt Q07955) | -0.17 | 2.02 | 0.446
SRSF2 (UniProt Q01130) | -0.0469 | 0.414 | 0.274
SRSF3 (UniProt P84103) | -0.485 | 1.69 | 0.987
SRSF4 (UniProt Q08170) | -0.0178 | 1.95 | 1.28
SRSF5 (UniProt Q13243) | -1.82 | 0.765 | 0.508
SRSF6 (UniProt Q13247) | -0.598 | 1.75 | 1.04
SRSF7 (UniProt Q16629) | 0.182 | 1.94 | 0.776
SRSF9 (UniProt Q13242) | 0.0934 | 2.14 | 0.947
SRSF10 (UniProt O75494) | 2.99 | 1.16 | 0.452
SRSF11 (UniProt Q05519) | 0.0211 | 0.00966 | 0.41
SRXN1 (UniProt Q9BYN0) | 0.115 | 0.0621 | -0.041
SSB (UniProt P05455) | 0.363 | -0.542 | 0.233
SSBP1 (UniProt Q04837) | 1.94 | 1.55 | 0.76
SSBP4 (UniProt Q9BWG4) | -0.402 | 1.24 | 1.21
SSFA2 (UniProt P28290) | -0.392 | -0.0444 | -0.00989

Target | thermal stability z-score (potassium arsenate) | thermal stability z-score (lipoamide; [1]) | thermal stability z-score (lipoamide; arsenate co-treatment: none)
SSH3 (UniProt Q8TE77) | -0.0687 | 0.153 | -0.0576
SSNA1 (UniProt O43805) | 1.34 | 1.6 | 1.39
SSR1 (UniProt P43307) | -1.26 | -1.49 | -0.782
SSR2 (UniProt P43308) | 0.191 | 0.441 | -0.158
SSR3 (UniProt Q9UNL2) | 0.0314 | -0.665 | -0.443
SSR4 (UniProt P51571) | -0.649 | -1.7 | -1.43
SSRP1 (UniProt Q08945) | 1.4 | 1.24 | 2.15
SSSCA1 (UniProt O60232) | 0.0653 | 1.33 | 1.12
SSU72 (UniProt Q9NP77) | -0.473 | -0.256 | -0.465
SSX2IP (UniProt Q9Y2D8) | -0.0542 | -0.271 | -0.143
ST3GAL4 (UniProt Q11206) | 0.726 | -0.112 | 0.0672
ST7 (UniProt Q9NRC1) | -1.16 | -0.0918 | 0.0296
ST13 (UniProt P50502) | 0.962 | 0.433 | 0.404
STAG1 (UniProt Q8WVM7) | -0.00763 | 0.115 | -0.148
STAG2 (UniProt Q8N3U4) | -0.0489 | 0.281 | 0.393
STAM2 (UniProt O75886) | 0.249 | 0.291 | -0.113
STAM (UniProt Q92783) | -0.0683 | -0.258 | 0.0211
STAMBP (UniProt O95630) | 1.23 | -0.0484 | -7.9e-05
STAMBPL1 (UniProt Q96FJ0) | 1.05 | 0.417 | 0.511
STARD7 (UniProt Q9NQZ5) | 1.07 | 0.0874 | 1.42
STAT1 (UniProt P42224) | 0.502 | -0.65 | -0.206
STAT2 (UniProt P52630) | 0.171 | -0.0423 | 0.0157
STAT3 (UniProt P40763) | 0.426 | 0.0355 | -0.181
STAT5A (UniProt P42229) | 0.0163 | -0.0259 | 0.314
STAT5B (UniProt P51692) | 0.0458 | -0.378 | -0.11
STAT6 (UniProt P42226) | 0.472 | 0.0546 | -0.269
STAU1 (UniProt O95793) | -0.275 | -1.06 | -0.199
